≈ marks a conversion by molar mass, not a printed value.
How the values were obtained:
[1] = test system: KB; assay: Cytotoxicity against human KB cells; assay type: cell-based
[2] = test system: Plasmodium falciparum; assay: Antimalarial activity against chloroquine-resistant Plasmodium falciparum W2; assay type: functional, organism-based
[3] = test system: Plasmodium falciparum; assay: Antimalarial activity against chloroquine-sensitive Plasmodium falciparum D6; assay type: functional, organism-based

| Compound | IC50 [1] [µg/mL] | IC50 [2] [µg/mL] | IC50 [3] [µg/mL] |
| --- | --- | --- | --- |
| CC1=C[C@]2(CC1)[C@H](C)CC[C@@H](C(C)C)[C@H]2N=C=S | > 20 | 3.11 (≈ 11.8 µM) | 12.3 (≈ 46.8 µM) |
| C[C@H]1CCC[C@]2(C)CC[C@H](C(C)(C)N=C=S)C=C12 | > 20 | 0.61 (≈ 2.32 µM) | 2.24 (≈ 8.5 µM) |
| C[C@@H]1CC[C@H]2[C@@H](C)C(=O)O[C@@H]3O[C@@]4(C)CC[C@@H]1[C@]32OO4 [ARTEMISININ] | > 20 | 0.00071 (≈ 0.00251 µM) | 0.0041 (≈ 0.0145 µM) |
| OC(c1cc(C(F)(F)F)nc2c(C(F)(F)F)cccc12)C1CCCCN1 (stereo not drawn) [MEFLOQUINE] |  | 0.00049 (≈ 0.0013 µM) | 0.0082 (≈ 0.0217 µM) |
| [C-]#[N+][C@@H]1[C@H](C(C)C)CC[C@@H](C)[C@@]12C=C(C)CC2 [AXISONITRILE 3] | > 20 | 0.0165 (≈ 0.0713 µM) | 0.142 (≈ 0.614 µM) |
| C=C(C)[C@@H]1CC[C@@]2(C)CCC[C@@](C)(N=C=S)[C@@H]2C1 | > 20 | > 10 | > 10 |
| C=C[C@H]1CN2CC[C@H]1C[C@H]2[C@H](O)c1ccnc2ccc(OC)cc12 [QUININE] | > 20 | 0.0238 (≈ 0.0734 µM) | 0.0102 (≈ 0.0314 µM) |
| C=C(C)[C@H]1CC[C@@]2(C)CCC[C@@](C)(N=C=S)[C@@H]2C1 | > 20 | 0.55 (≈ 2.09 µM) | 4 (≈ 15.2 µM) |
